Legend:
Format in all cases: cell-based
Settings in all cases: free compounds (natural products and synthetic analogs), cell viability 96 hours after treatment
[1] = test system: BT474 (breast cancer) cells; assay: In vitro cell assay (MTS cell viability), BT474
Description: (§1) Target expressing (BT474 (breast cancer), N87 (gastric cancer), HCC1954 (breast cancer), MDA-MB-361-DYT2 (breast cancer)) or non-expressing (MDA-MB-468) cells were seeded in 96-well cell culture plates for 24 hours before treatment. Cells were treated with 3-fold serially diluted antibody-drug conjugates or free compounds (i.e., no antibody conjugated to the drug) in duplicate at 10 concentrations. Cell viability was determined by CellTiter 96® AQueous One Solution Cell Proliferation MTS Assay (Promega, Madison Wis.) 96 hours after treatment. Relative cell viability was determined as percentage of untreated control. IC50 values were calculated using a four parameter logistic model #203 with XLfit v4.2 (IDBS, Guildford, Surry, UK). The potency ranged upward from 0.0002 nm. Similar procedures and techniques were employed.

[2] = test system: N87 (gastric cancer) cells; assay: In vitro cell assay (MTS cell viability), N87
Description: as §1

[3] = test system: MDA-MB-361-DYT2 (breast cancer) cells; assay: In vitro cell assay (MTS cell viability), MDA-MB-361-DYT2
Description: as §1

For `CC(=O)O[C@@H](C)/C=C\C(=O)N[C@@H]1C[C@H](C)[C@H](C/C=C(C)/C=C/[C@H]2O[C@H](CC(=O)N[C@H]3CC[C@H](N(C)C)CC3)C[C@@]3(CO3)[C@@H]2O)O[C@@H]1C` (relative stereo) [#B86, (2S,3Z)-5-{[(2R,3R,5S,6S)-6-{(2E,4E)-5-[(3R,4R,5R,7S)-7-(2-{[trans-4-(dimethylamino)cyclohexyl]amino}-2-oxoethyl)-4-hydroxy-1,6-dioxaspiro[2.5]oct-5-yl]-3-methylpenta-2,4-dien-1-yl}-2,5-dimethyltetrahydro-2H-pyran-3-yl]amino}-5-oxopent-3-en-2-yl acetate], the IC50 [1] was 20.1 nM, the IC50 [2] was 14 nM and the IC50 [3] was 73.3 nM.
In the case of `CC(=O)O[C@@H](C)/C=C\C(=O)N[C@@H]1C[C@H](C)[C@H](C/C=C(C)/C=C/[C@@H]2C[C@]3(CO3)C[C@@H](CC(=O)N[C@H]3CC[C@H](N(C)C)CC3)O2)O[C@@H]1C` (relative stereo) [#B87, (2S,3Z)-5-{[(2R,3R,5S,6S)-6-{(2E,4E)-5-[(3S,5S,7S)-7-(2-{[trans-4-(dimethylamino)cyclohexyl]amino}-2-oxoethyl)-1,6-dioxaspiro[2.5]oct-5-yl]-3-methylpenta-2,4-dien-1-yl}-2,5-dimethyltetrahydro-2H-pyran-3-yl]amino}-5-oxopent-3-en-2-yl acetate], the IC50 [1] is reported as 1.21 nM, the IC50 [2] is reported as 0.744 nM and the IC50 [3] is reported as 3.47 nM.
In the case of `CC(=O)O[C@@H](C)/C=C\C(=O)N[C@@H]1C[C@H](C)[C@H](C/C=C(C)/C=C/[C@@H]2C[C@]3(CO3)C[C@@H](CC(=O)N[C@H]3CC[C@@H](N(C)C)CC3)O2)O[C@@H]1C` (relative stereo) [#B90, (2S,3Z)-5-{[(2R,3R,5S,6S)-6-{(2E,4E)-5-[(3S,5S,7S)-7-(2-{[cis-4-(dimethylamino)cyclohexyl]amino}-2-oxoethyl)-1,6-dioxaspiro[2.5]oct-5-yl]-3-methylpenta-2,4-dien-1-yl}-2,5-dimethyltetrahydro-2H-pyran-3-yl]amino}-5-oxopent-3-en-2-yl acetate], the IC50 [1] is reported as 1.26 nM, the IC50 [2] is reported as 0.87 nM and the IC50 [3] is reported as 3.9 nM.
Work on `CC(=O)O[C@@H](C)/C=C\C(=O)N[C@@H]1C[C@H](C)[C@H](C/C=C(C)/C=C/[C@@H]2C[C@]3(CO3)C[C@@H](CC(=O)NN)O2)O[C@@H]1C` [#B7, (2S,3Z)-5-{[(2R,3R,5S,6S)-6-{(2E,4E)-5-[(3S,5S,7S)-7-(2-hydrazinyl-2-oxoethyl)-1,6-dioxaspiro[2.5]oct-5-yl]-3-methylpenta-2,4-dien-1-yl}-2,5-dimethyltetrahydro-2H-pyran-3-yl]amino}-5-oxopent-3-en-2-yl acetate] yielded an IC50 ([1]; Homo sapiens, BT-474) of 1.12 nM, an IC50 ([2]; 96 h) of 0.344 nM and an IC50 ([3]; 96 h) of 1.88 nM.
Work on `CC(=O)O[C@@H](C)/C=C\C(=O)N[C@@H]1C[C@H](C)[C@H](C/C=C(C)/C=C/[C@H]2O[C@H](CC(=O)NCCO)C[C@@]3(CO3)[C@@H]2O)O[C@@H]1C` [#B8, (2S,3Z)-5-{[(2R,3R,5S,6S)-6-{(2E,4E)-5-[(3R,4R,5R,7S)-4-hydroxy-7-{2-[(2-hydroxyethyl)amino]-2-oxoethyl}-1,6-dioxaspiro[2.5]oct-5-yl]-3-methylpenta-2,4-dien-1-yl}-2,5-dimethyltetrahydro-2H-pyran-3-yl]amino}-5-oxopent-3-en-2-yl acetate] yielded an IC50 ([1]; Homo sapiens, BT-474) of 14.1 nM, an IC50 ([2]; 96 h) of 10.7 nM and an IC50 ([3]; 96 h) of 25.5 nM.
Compound `CC(=O)O[C@@H](C)/C=C\C(=O)N[C@@H]1C[C@H](C)[C@H](C/C=C(C)/C=C/[C@H]2O[C@H](CC(N)=O)C[C@@]3(CO3)[C@@H]2O)O[C@@H]1C` [#B9, (2S,3Z)-5-{[(2R,3R,5S,6S)-6-{(2E,4E)-5-[(3R,4R,5R,7S)-7-(2-amino-2-oxoethyl)-4-hydroxy-1,6-dioxaspiro[2.5]oct-5-yl]-3-methylpenta-2,4-dien-1-yl}-2,5-dimethyltetrahydro-2H-pyran-3-yl]amino}-5-oxopent-3-en-2-yl acetate] has an IC50 ([1]; Homo sapiens, BT-474) of 3.26 nM, an IC50 ([2]; 96 h) of 1.34 nM and an IC50 ([3]; 96 h) of 5.26 nM.
`CC(=O)O[C@@H](C)/C=C\C(=O)N[C@@H]1C[C@H](C)[C@H](C/C=C(C)/C=C/[C@H]2O[C@H](CC(=O)NCc3ccc(S(N)(=O)=O)cc3)C[C@@]3(CO3)[C@@H]2O)O[C@@H]1C` [#B10, (2S,3Z)-5-{[(2R,3R,5S,6S)-6-{(2E,4E)-5-[(3R,4R,5R,7S)-4-hydroxy-7-{2-oxo-2-[(4-sulfamoylbenzyl)amino]ethyl}-1,6-dioxaspiro[2.5]oct-5-yl]-3-methylpenta-2,4-dien-1-yl}-2,5-dimethyltetrahydro-2H-pyran-3-yl]amino}-5-oxopent-3-en-2-yl acetate] showed an IC50 ([1]; Homo sapiens, BT-474) of 43.5 nM, an IC50 ([2]; 96 h) of 12.1 nM and an IC50 ([3]; 96 h) of 77.5 nM.
With `CC(=O)O[C@@H](C)/C=C\C(=O)N[C@@H]1C[C@H](C)[C@H](C/C=C(C)/C=C/[C@H]2O[C@H](CC(=O)Nc3ccc(C(N)=O)cc3)C[C@@]3(CO3)[C@@H]2O)O[C@@H]1C` [#B267, (2S,3Z)-5-{[(2R,3R,5S,6S)-6-{(2E,4E)-5-[(3R,4R,5R,7S)-7-{2-[(4-carbamoylphenyl)amino]-2-oxoethyl}-4-hydroxy-1,6-dioxaspiro[2.5]oct-5-yl]-3-methylpenta-2,4-dien-1-yl}-2,5-dimethyltetrahydro-2H-pyran-3-yl]amino}-5-oxopent-3-en-2-yl acetate] the IC50 ([2]; 96 h) was 3.44 nM and the IC50 ([3]; 96 h) was 23.8 nM.
`CC(/C=C/[C@@H]1C[C@]2(CO2)C[C@@H](CC(N)=O)O1)=C\C[C@@H]1O[C@H](C)[C@H](NC(=O)/C=C/C(C)N)C[C@@H]1C` (stereo partly drawn) [#B271, (2E)-4-amino-N-[(2R,3R,5S,6S)-6-{(2E,4E)-5-[(3S,5S,7S)-7-(2-amino-2-oxoethyl)-1,6-dioxaspiro[2.5]oct-5-yl]-3-methylpenta-2,4-dien-1-yl}-2,5-dimethyltetrahydro-2H-pyran-3-yl]pent-2-enamide] was tested, and the IC50 [2] was greater than 100 nM and the IC50 [3] was greater than 100 nM.
`CC(/C=C/[C@@H]1C[C@]2(CO2)C[C@@H](CC(N)=O)O1)=C\C[C@@H]1O[C@H](C)[C@H](NC(=O)/C=C\C(C)N)C[C@@H]1C` (stereo partly drawn) [#B272, (2Z)-4-amino-N-[(2R,3R,5S,6S)-6-{(2E,4E)-5-[(3S,5S,7S)-7-(2-amino-2-oxoethyl)-1,6-dioxaspiro[2.5]oct-5-yl]-3-methylpenta-2,4-dien-1-yl}-2,5-dimethyltetrahydro-2H-pyran-3-yl]pent-2-enamide] showed an IC50 ([2]; 96 h) greater than 100 nM and an IC50 ([3]; 96 h) greater than 100 nM.
In the case of `CC(/C=C/[C@@H]1C[C@]2(CO2)C[C@@H](CC(N)=O)O1)=C\C[C@@H]1O[C@H](C)[C@H](NC(=O)/C=C/C(C)N)C[C@@H]1C` (stereo partly drawn) [#B273, (2E)-4-amino-N-[(2R,3R,5S,6S)-6-{(2E,4E)-5-[(3S,5S,7S)-7-(2-amino-2-oxoethyl)-1,6-dioxaspiro[2.5]oct-5-yl]-3-methylpenta-2,4-dien-1-yl}-2,5-dimethyltetrahydro-2H-pyran-3-yl]pent-2-enamide], the IC50 [2] is reported as 600 nM and the IC50 [3] is reported as greater than 1000 nM.
`CCCNC(=O)C[C@]1(O)C[C@@]2(CO2)[C@H](O)[C@@H](/C=C/C(C)=C/C[C@@H]2O[C@H](C)[C@H](NC(=O)/C=C\[C@H](C)OC(C)=O)C[C@@H]2C)O1` [#B275, (2S,3Z)-5-({(2R,3R,5S,6S)-6-[(2E,4E)-5-{(3R,4R,5R,7S)-4,7-dihydroxy-7-[2-oxo-2-(propylamino)ethyl]-1,6-dioxaspiro[2.5]oct-5-yl}-3-methylpenta-2,4-dien-1-yl]-2,5-dimethyltetrahydro-2H-pyran-3-yl}amino)-5-oxopent-3-en-2-yl acetate] gave an IC50 ([2]; 96 h) of 5.33 nM and an IC50 ([3]; 96 h) of 22.2 nM.
With `COC(=O)C[C@@H]1C[C@@](O)(CCl)[C@H](O)[C@@H](/C=C/C(C)=C/C[C@@H]2O[C@H](C)[C@H](NC(=O)/C=C\[C@H](C)OC(C)=O)C[C@@H]2C)O1` [#B284, (1S,5R)-5-{(1E,3E)-5-[(2S,3S,5R,6R)-5-{[(2Z,4S)-4-(acetyloxy)pent-2-enoyl]amino}-3,6-dimethyltetrahydro-2H-pyran-2-yl]-3-methylpenta-1,3-dien-1-yl}-1,5-anhydro-3-C-(chloromethyl)-2-deoxy-1-(2-methoxy-2-oxoethyl)-D-erythro-pentitol] the IC50 ([2]; 96 h) was 1.3 nM and the IC50 ([3]; 96 h) was 2.03 nM.
`CCCNC(=O)C[C@@H]1C[C@@](O)(CCl)C[C@@H](/C=C/C(C)=C/C[C@@H]2O[C@H](C)[C@H](NC(=O)/C=C\[C@H](C)OC(C)=O)C[C@@H]2C)O1` [#B285, (2S,3Z)-5-({(2R,3R,5S,6S)-6-[(2E,4E)-5-{(2S,4S,6S)-4-(chloromethyl)-4-hydroxy-6-[2-oxo-2-(propylamino)ethyl]tetrahydro-2H-pyran-2-yl}-3-methylpenta-2,4-dien-1-yl]-2,5-dimethyltetrahydro-2H-pyran-3-yl}amino)-5-oxopent-3-en-2-yl acetate] was tested, and the IC50 ([2]; 96 h) was 7.61 nM and the IC50 ([3]; 96 h) was 11.7 nM.
Work on `CCCNC(=O)C[C@@H]1C[C@@](O)(CCl)[C@H](O)[C@@H](/C=C/C(C)=C/C[C@@H]2O[C@H](C)[C@H](NC(=O)/C=C\[C@H](C)OC(C)=O)C[C@@H]2C)O1` [#B286, (1S,5R)-5-{(1E,3E)-5-[(2S,3S,5R,6R)-5-{[(2Z,4S)-4-(acetyloxy)pent-2-enoyl]amino}-3,6-dimethyltetrahydro-2H-pyran-2-yl]-3-methylpenta-1,3-dien-1-yl}-1,5-anhydro-3-C-(chloromethyl)-2-deoxy-1-[2-oxo-2-(propylamino)ethyl]-D-erythro-pentitol] yielded an IC50 ([2]; 96 h) of 0.387 nM and an IC50 ([3]; 96 h) of 1.11 nM.

Reference: US9504669B2, “Spliceostatin analogs and methods for their preparation” (PFIZER INC., priority 2012, dated 2016)
